From ChEMBL document CHEMBL5357085, “Synthesis and Evaluation of Natural and Unnatural Tetrahydrocannabiorcol for Its Potential Use in Neuropathologies” (J Nat Prod, 2024) come the findings set out here.

The test system of series [1] is SH-SY5Y. The series can be described thus: Cytotoxicity against human SH-SY5Y cells assessed as reduction in cell viability at 5 nM measured after 48 hrs by MTT assay. It counts as toxicity, cell-based. The conditions noted are these: 0.005 µM. On the technique in general: Tetrazolium dyes change colour on reduction, which living cells bring about.
The subject of series [2] is SH-SY5Y. The series can be described thus: Neuroprotective activity against corticosterone-induced cytotoxicity in human SH-SY5Y cells assessed as rescue of cell viability at 5 nM preincubated with compound for 24 hrs followed by corticosterone stimulation and measured after 48 hrs by MTT assay (reference value: 41%). It is filed as functional. The note with it: time 72 hrs.

Series [3] can be described thus: Upregulation of BDNF expression in human SH-SY5Y cells at 5 nM incubated for 2 hrs by ELISA. It counts as functional. (In general: In an ELISA, binding on a coated surface is turned into a signal by an enzyme label.)
In series [4] the test system is SH-SY5Y. Kind of series: Neuroprotective activity against corticosterone-induced cytotoxicity in human SH-SY5Y cells assessed as BDNF concentration at 5 nM preincubated with compound for 2 hrs followed by corticosterone addition and measured 2 hrs after replacement with fresh media by ELISA (reference value: 5 pg/ml). It is filed as functional.
Series [5] deals with SH-SY5Y. Kind of series: Cytotoxicity against human SH-SY5Y cells assessed as reduction in cell viability at 1 to 50 uM measured after 48 hrs by MTT assay. It is filed as toxicity, cell-based. The note with it: dose 1-50 µM.
The test system of series [6] is SH-SY5Y. The series can be described thus: Neuroprotective activity against corticosterone-induced cytotoxicity in human SH-SY5Y cells assessed as rescue of cell viability at 5 uM preincubated with compound for 24 hrs followed by corticosterone stimulation and measured after 48 hrs by MTT assay (reference value: 41%). It is filed as functional. The conditions noted are these: time 72 hrs.

For series [7], the system named is SH-SY5Y. The series can be described thus: Neuroprotective activity against corticosterone-induced cytotoxicity in human SH-SY5Y cells assessed as rescue of cell viability at 10 uM preincubated with compound for 24 hrs followed by corticosterone stimulation and measured after 48 hrs by MTT assay (reference value: 41%). It is filed as functional. The conditions noted are these: time 72 hrs.

In series [8] the test system is SH-SY5Y. The series can be described thus: Neuroprotective activity against corticosterone-induced cytotoxicity in human SH-SY5Y cells assessed as rescue of cell viability at 20 uM preincubated with compound for 24 hrs followed by corticosterone stimulation and measured after 48 hrs by MTT assay (reference value: 41%). It is filed as functional. The conditions noted are these: time 72 hrs.

For series [9], the system named is SH-SY5Y. Kind of series: Cytotoxicity against human SH-SY5Y cells assessed as reduction in cell viability at 10 uM measured at 24 to 96 hrs by MTT assay. It is filed as toxicity, cell-based. The note with it: time 24-96 hrs.
Series [10] deals with SH-SY5Y. Kind of series: Neuroprotective activity against corticosterone-induced cytotoxicity in human SH-SY5Y cells assessed as rescue of cell viability at 10 uM preincubated with compound for 24 hrs followed by corticosterone stimulation and measured after 48 hrs by MTT assay relative to control. It is filed as functional. The conditions noted are these: time 72 hrs.
The test system of series [11] is SH-SY5Y. The series can be described thus: Neuroprotective activity against corticosterone-induced cytotoxicity in human SH-SY5Y cells assessed as rescue of cell viability at 10 uM preincubated with compound for 48 hrs followed by corticosterone stimulation and measured after 48 hrs by MTT assay relative to control. It counts as functional. The note with it: time 96 hrs.

In series [12] the test system is SH-SY5Y. Kind of series: Neuroprotective activity against corticosterone-induced cytotoxicity in human SH-SY5Y cells assessed as rescue of cell viability at 10 uM preincubated with compound for 72 hrs followed by corticosterone stimulation and measured after 48 hrs by MTT assay relative to control. It is filed as functional. The conditions noted are these: time 120 hrs.

Series [13] relates to SH-SY5Y. Kind of series: Neuroprotective activity against corticosterone-induced cytotoxicity in human SH-SY5Y cells assessed as rescue of cell viability at 10 uM preincubated with compound for 96 hrs followed by corticosterone stimulation and measured after 48 hrs by MTT assay relative to control. It counts as functional. The conditions noted are these: time 144 hrs.
A short description of series [14]: Upregulation of BDNF expression in human SH-SY5Y cells at 10 uM incubated for 2 hrs by ELISA. It counts as functional.
In series [15] the test system is SH-SY5Y. Kind of series: Neuroprotective activity against corticosterone-induced cytotoxicity in human SH-SY5Y cells assessed as BDNF concentration at 10 uM preincubated with compound for 2 hrs followed by corticosterone addition and measured 2 hrs after replacement with fresh media by ELISA (reference value: 5 pg/ml). It is filed as functional.
The nature of series [16]: Downregulation of corticosterone release in human SH-SY5Y cells at 10 uM incubated for 2 hrs by ELISA. It counts as functional.
For series [17], the system named is SH-SY5Y. Kind of series: Neuroprotective activity against corticosterone-induced cytotoxicity in human SH-SY5Y cells assessed as […] at 10 uM preincubated with compound for 2 hrs followed by corticosterone addition and measured 2 hrs after replacement with fresh media by ELISA. It counts as functional.
Series [18] relates to SH-SY5Y. Kind of series: Cytotoxicity against human SH-SY5Y cells assessed as reduction in cell viability at 20 uM measured after 48 hrs by MTT assay. It is filed as toxicity, cell-based.
Series [19] has as its system SH-SY5Y. The series can be described thus: Neuroprotective activity against corticosterone-induced cytotoxicity in human SH-SY5Y cells assessed as rescue of cell viability at 20 uM preincubated with compound for 24 hrs followed by corticosterone stimulation and measured after 48 hrs by MTT assay. It is filed as functional, cell-based. The note with it: time 72.0 hrs.

Series [20] has as its system SH-SY5Y. Kind of series: Upregulation of BDNF expression in human SH-SY5Y cells at 20 uM incubated for 2 hrs by ELISA. It counts as functional, cell-based.
Series [21] deals with SH-SY5Y. The series can be described thus: Neuroprotective activity against corticosterone-induced cytotoxicity in human SH-SY5Y cells assessed as rescue of BDNF expression at 20 uM preincubated with compound for 2 hrs followed by corticosterone addition and measured 2 hrs after replacement with fresh media by ELISA (reference value: 5 pg/ml). It is filed as functional, cell-based.

Series [22] has as its system SH-SY5Y. The series can be described thus: Inhibition of corticosterone release in human SH-SY5Y cells at 20 uM incubated for 2 hrs by ELISA. It is filed as functional, cell-based.
Series [23] concerns SH-SY5Y. The series can be described thus: Neuroprotective activity against corticosterone-induced cytotoxicity in human SH-SY5Y cells assessed as […] at 20 uM preincubated with compound for 2 hrs followed by corticosterone addition and measured 2 hrs after replacement with fresh media by ELISA. It is filed as functional, cell-based.

Calls of active or inactive are those of the source. The rule behind the calls is not given here.

Consider `O=c1cc(-c2ccccc2)oc2c(O)c(O)ccc12` [7,8-DIHYDROXYFLAVONE], for which the Activity entry in the series on SH-SY5Y [1] was “Non-Toxic”; with SH-SY5Y [2] it was 86%; in [3], 19 pg/mL; in the series on SH-SY5Y [4] it was 21 pg/mL.
Turning to `CC1=C[C@@H]2c3c(O)cc(C)cc3OC(C)(C)[C@H]2CC1`, the Activity result with SH-SY5Y [5] was “Non-Toxic”; in the series with SH-SY5Y [6] it was 83%; with SH-SY5Y [7], 99%; in the series on SH-SY5Y [8], 101%; with SH-SY5Y [9] it was “Non-Toxic”; in the series on SH-SY5Y [10], 92%. Moreover, the Activity in the series on SH-SY5Y [11] came to 98%; with SH-SY5Y [12], 102%; with SH-SY5Y [13], 104%; in series [14], 29 pg/mL; in the series with SH-SY5Y [15], 25 pg/mL; in [16] it was 0.43 pg/mL. Also, the Activity in the series on SH-SY5Y [17] was determined as 5 pg/mL.
Take `CC1=C[C@H]2c3c(O)cc(C)cc3OC(C)(C)[C@@H]2CC1`: the Activity result is “Non-Toxic” in the series with SH-SY5Y [5]; 79% with SH-SY5Y [6]; 96% in the series with SH-SY5Y [7]; 97% with SH-SY5Y [8]; “Non-Toxic” with SH-SY5Y [9]; 89% in the series with SH-SY5Y [10]. Moreover, the Activity in the series with SH-SY5Y [11] stood at 90%; in the series on SH-SY5Y [12], 95%; in the series on SH-SY5Y [13], 99%; in series [14], 21 pg/mL; in the series on SH-SY5Y [15], 18 pg/mL; in series [16], 0.22 pg/mL. Further, the Activity with SH-SY5Y [17] amounted to 7 pg/mL.
For the compound `C=C(C)[C@@H]1CCC(C)=C[C@H]1c1c(O)cc(CCCCC)cc1O` [CANNABIDIOL], in the series with SH-SY5Y [18], the Activity result is given as “Non-Toxic”. Besides, the outcome with SH-SY5Y [19] was Active. In addition, the result in the series with SH-SY5Y [20], with SH-SY5Y [21] and in the series with SH-SY5Y [23] was inactive. The inhibition entry with SH-SY5Y [22] is “inactive”.
